In PMC4853826 (European heart journal. Cardiovascular pharmacotherapy, 2015):
“And” between values parts separate entries of the source, which are not always exact repeats. Equal entries are not always repeated.

Legend:
neprilysin (NEP) = conditions: cited from earlier work
normal canines = test: In vivo renal function, peptide infusion in normal canines; parameters: species or system canine; conditions: for RBF / GFR / DFRNa (distal fractional reabsorption of Na+) / PFRNa (proximal fractional reabsorption of Na+) / MAP: SEM
[1] = Post-I (after 30-min washout), lithium clearance, mean ± SEM
[2] = Pre-I (prior to infusion, baseline), lithium clearance technique, mean ± SEM
[3] = normal canines, infusion 32 mmol/kg/min

## CNP: native C-type natriuretic peptide, 22 amino acids, selective pGC-B activator
Neprilysin (NEP)
  susceptibility to enzymatic degradation by NEP (in words): highly susceptible
Normal canines; 30 min I (16th-45th min of infusion, 32 mmol/kg/min), mean ± SEM
  RBF: 294 ± 31 mL/min
Normal canines; 60 min I (46th-75th min of infusion, 32 mmol/kg/min), mean ± SEM
  RBF: 278 ± 29 mL/min
Normal canines; Post-I (after 30-min washout), inulin clearance, mean ± SEM
  GFR: 48.8 ± 5.6 mL/min
Normal canines; [1]
  DFRNa (distal fractional reabsorption of Na+): 97±0.8%
  PFRNa (proximal fractional reabsorption of Na+): 73±2%
Normal canines; Post-I (after 30-min washout), mean ± SEM
  RBF: 270 ± 25 mL/min
Normal canines; Pre-I (prior to infusion, baseline), electromagnetic flow probe, mean ± SEM
  RBF: 273 ± 26 mL/min
Normal canines; [2]
  DFRNa (distal fractional reabsorption of Na+): 98±0.6%
  PFRNa (proximal fractional reabsorption of Na+): 80±3%
Normal canines; dog, in vivo, iv
  MAP: 127±4 mmHg and 128±4 mmHg
Normal canines; dog, in vivo
  GFR: 52.3 ± 5.1 mL/min
  MAP: 123±4 mmHg and 128±4 mmHg
Normal canines; [3]
  net renal generation of cGMP (in words): unchanged
  plasma cGMP (in words): modestly increased
  urinary cGMP excretion (in words): unchanged
